The values that follow come from US9381196B2, “Compounds, pharmaceutical compositions and methods of use of hydroxamic acid derivatives” (THE TRANSLATIONAL GENOMICS RESEARCH INSTITUTE, priority 2008, dated 2016).

In assay [1] the test system is MiaPaca cells. Put plainly: CellTiter-Blue cell viability assay, MiaPaCa cell line. It counts as cell-based, human. The settings on record: cell growth inhibition. On the technique in general: Alamar Blue is a resazurin reagent that responds to reducing activity.
From the text: (§6) Where X is the logarithm of concentration and Y is the response. Y starts at the Bottom and goes to Top with a sigmoid shape.
In assay [2] the test system is Skov-3 cells. Put plainly: CellTiter-Blue cell viability assay, SKOV3 cell line. It is filed as cell-based. To be noted: cell growth inhibition. An excerpt:
Cell viability in the presence of varying concentrations of the above listed aspects of the disclosed compound at different time points was used to assess cytotoxicity and the effect of the disclosed compound on cell proliferation.

Assay [3] relates to mdamb231 cells. Put plainly: CellTiter-Blue cell viability assay, mdamb231 cell line. It is filed as cell-based. The settings on record: cell growth inhibition.
From the text: as §6
For assay [4], the system named is A2780 cell line. The settings on record: 72 hours treatment. The procedure:
(§1) Cell viability was measured by the CellTiter-Blue® cell viability assay Promega (Madison, Wis.). This procedure measures the conversion of the indicator dye (resazurin) to resorufin, an indicator of cell viability. Following treatment, growth media was removed and cells were incubated with 20 μl of CellTiter-Blue® Reagent and growth media for 1-4 hours at 37° C. Fluorescence values were measured at 535/590 nm using a Beckman-Coulter DTX-880 microplate reader.
(§2) Cells were grown to 70% confluency, trypsinized, counted, and seeded in 96 well flat-bottom plates at a final concentration of 2.5×10^3-5×10^3 cells/well (Day 0). Cells were allowed to incubate in growth media for 24 hours to allow for maximum adhesion. Treatment with the test agents or standard agents began on Day 1 and continued for 72 hours. At the 72 hour timepoint, treatment including media was removed. Viable cell numbers are quantified by the CellTiter-Blue® cell viability assay as described above. Experiments were repeated at least twice with the same concentrations to determine growth inhibitory activity.
(§3) Single agent and combination studies, data from each experiment was collected and expressed as % Cell Growth using the following calculation: % Cell Growth=(ftest/fvehicle)×100
(§4) Where ftest is the fluorescence of the tested sample, and fvehicle is the fluorescence of the vehicle in which the drug is dissolved. Dose response graphs and IC50 values were generated using Prism 4 software (GraphPad) using the following equation: […]
(§5) Where X is the logarithm of concentration and Y is the response.

For assay [5], the system named is H23 cell line. The settings on record: 72 hours treatment. The procedure:
as §1, §2, §3, §4, §5

Assay [6] deals with PANC-1 cell line. The settings on record: 72 hours treatment. The method, then:
as §1, §2, §3, §4, §5

Assay [7] deals with VCAP cell line. To be noted: 72 hours treatment. The procedure:
as §1, §2, §3, §4, §5

For assay [8], the system named is H295R cell line. To be noted: 72 hours treatment. The procedure: as §1, §2, §3, §4, §5
Assay [9] deals with MV522 cell line. To be noted: 72 hours treatment. The procedure:
as §1, §2, §3, §4, §5

Assay [10] relates to MIA PaCa-2 human pancreas cells xenograft. To be noted: MIA PaCa-2 xenograft in nude mice. The procedure: In vivo efficacy of the disclosed compound was tested through a human pancreas tumor xenograft model. Female Ncr nude mice were inoculated with 1×10^7 MIA PaCa-2 human pancreas cells suspended in a mixture of 50% Matrigel and 50% tissue culture media in a total volume of […] When the tumors reached a mean weight of 157 mg, the mice were separated into four groups of 7-8 mice per group and treated. One group was treated with vehicle only. A second group was treated with Compound ID #15 at 50 mg/kg. A third group was treated with Compound ID #15 at 100 mg/kg and a fourth group was treated with Gemcitabine at 80 mg/kg. Vehicle and Compound ID #15 were administered by mouth while Gemcitabine was administered via an intraperitoneal injection. Body weights and tumor size data were collected twice weekly. Tumor width and length were measured in millimeters and converted to tumor weight (in milligrams) using the formula (width^2×Length/2)=tumor weight (mg.)

[11] abbreviates: Homo sapiens, MIA PaCa-2, 72 hours treatment.
Setting [12] is: Homo sapiens, SK-OV-3, 72 hours treatment.
[13] abbreviates: Homo sapiens, MDA-MB-231, 72 hours treatment.

Like-named read-outs stand apart in the source and are kept apart here. Where only a bound is given, the exact number is not on record here.

The IC50 is the concentration that gives 50% inhibition. For the molecule `O=C(CCCCCCc1nc2c(Cl)cccc2[nH]1)NO` [Compound ID 26, 7-(4-chloro-1H-benzo[d]imidazol-2-yl)-N-hydroxyheptanamide], the IC50 in assay [1] (setting [11]) stood at 8500 nM; in assay [2] (setting [12]), 10200 nM.
Regarding `O=C(CCCCCCc1nc2ccccc2[nH]1)NO` [Compound ID 14, 7-(1H-benzo[d]imidazol-2-yl)-N-hydroxyheptanamide], the concentration for half-maximal inhibition (IC50) was 1900 nM in assay [1] (setting [11]) and 2700 nM in assay [2] (setting [12]).
`COc1ccc2[nH]c(CCCCCCC(=O)NO)nc2c1` [Compound ID 17, N-hydroxy-7-(5-methoxy-1H-benzo[d]imidazol-2-yl)heptanamide]: the IC50 in [2] (setting [12]) is > 10000 nM.
Same read-out and setting: the result for `COc1ccc(-c2ccc3[nH]c(CCCCCCC(=O)NO)nc3c2)cc1` [Compound ID 33, N-hydroxy-7-(5-(4-methoxyphenyl)-1H-benzo[d]imidazol-2-yl)heptanamide] reads 3200 nM.
With `Cn1c(CCCCCCC(=O)NO)nc2ccccc21` [Compound ID 19, N-hydroxy-7-(1-methyl-1H-benzo[d]imidazol-2-yl) heptanamide], the concentration for half-maximal inhibition (IC50) in assay [2] (72 hours treatment) turned out to be 3000 nM.
For “7-(5-bromo-1H-benzimidazol-2-yl)-N-hydroxy heptanamide [Compound ID 15]”, the IC50 in assay [3] (72 hours treatment) is 890 nM; in assay [1] (72 hours treatment) it was 820 nM; in [4] it was 1900 nM; in assay [5], 560 nM; in assay [6], 130 nM; in assay [7] it was 2400 nM. Moreover, the IC50 in assay [8] worked out at 180 nM; in assay [9], 2200 nM; in assay [2] (72 hours treatment), 270 nM. Also, the “slowing growth of the xenografts” value in [10] (50 mg/kg by mouth) was “no more effective than the vehicle control”; in assay [10] (100 mg/kg by mouth, comparator gemcitabine 80 mg/kg intraperitoneal) it was “about as effective as gemcitabine”.
Consider `O=C(CCCCCCc1nc2cc(-c3cncnc3)ccc2[nH]1)NO` [Compound ID 28, N-hydroxy-7-(5-(pyrimidin-5-yl)-1H-benzo[d]imidazol-2-yl)heptanamide], for which the results for the IC50 in assay [3] (setting [13]) and in [2] (setting [12]) were 540 nM and 2600 nM, respectively.
In the case of `O=C(CCCCCCc1nc2ccncc2[nH]1)NO` [Compound ID 23, N-hydroxy-7-(3H-imidazo[4,5-c]pyridin-2-yl)heptanamide], the half-inhibitory concentration (IC50) in [1] (setting [11]) and in [2] (setting [12]) was > 10000 nM throughout.
As for `O=C(CCCCCCc1nc2cc(Cl)ccc2[nH]1)NO` [Compound ID 22, 7-(5-chloro-1H-benzo[d]imidazol-2-yl)-N-hydroxyheptanamide], in assay [2] (setting [12]), the concentration for half-maximal inhibition (IC50) is 320 nM.
For `O=C(CCCCCCc1nc2cc(-c3ccc(F)cc3)ccc2[nH]1)NO` [Compound ID 29, 7-(5-(4-fluorophenyl)-1H-benzo[d]imidazol-2-yl)-N-hydroxyheptanamide], the values for the IC50 in assay [3] (setting [13]) and in [2] (setting [12]) were 210 nM and 1200 nM, respectively.
As for `O=C(CCCCCc1nc2ccccc2[nH]1)NO` [Compound ID 16, 6-(1H-benzo[d]imidazol-2-yl)-N-hydroxyhexanamide], in assay [2] (setting [12]), the IC50 was 11000 nM.
Same read-out and setting: in the case of `O=C(CCCCCCc1nc2cc(F)ccc2[nH]1)NO` [Compound ID 21, 7-(5-fluoro-1H-benzo[d]imidazol-2-yl)-N-hydroxyheptanamide] it was 1900 nM.
With `O=C(CCCCCCc1nc2ccccc2n1-c1ccccc1)NO` [Compound ID 27, N-hydroxy-7-(1-phenyl-1H-benzo[d]imidazol-2-yl)heptanamide], the IC50 in assay [1] (setting [11]) and in assay [2] (setting [12]) was > 10000 nM throughout.
For the molecule `CN(C)c1ccc2[nH]c(CCCCCCC(=O)NO)nc2c1` [Compound ID 20, 7-(5-(dimethylamino)-1H-benzo[d]imidazol-2-yl)-N-hydroxyheptanamide], in assay [2] (setting [12]), half-maximal inhibition (IC50) required 1200 nM.
In the case of `O=C(CCCCCCc1nc2ccccc2n1C1CC1)NO` [Compound ID 24, 7-(1-cyclopropyl-1H-benzo[d]imidazol-2-yl)-N-hydroxyheptanamide], the IC50 is 4000 nM in [1] (setting [11]) and 9500 nM in assay [2] (setting [12]).
`O=C(CCCCCCc1nc2cc(-c3cccc(F)c3)ccc2[nH]1)NO` [Compound ID 30, 7-(5-(3-fluorophenyl)-1H-benzo[d]imidazol-2-yl)-N-hydroxyheptanamide]: the IC50 in assay [3] (setting [13]) was found to be 330 nM; in assay [2] (setting [12]), 1500 nM.
Turning to `O=C(CCCCCCc1nc2cc(-c3ccccc3F)ccc2[nH]1)NO` [Compound ID 32, 7-(5-(2-fluorophenyl)-1H-benzo[d]imidazol-2-yl)-N-hydroxyheptanamide], the IC50 in [2] (setting [12]) was found to be 7400 nM.
For the molecule `O=C(CCCCCCc1nc2cc(-c3ccccc3)ccc2[nH]1)NO` [Compound ID 18, N-hydroxy-7-(5-phenyl-1H-benzo[d]imidazol-2-yl)heptanamide], the IC50 in assay [1] (setting [11]) is 400 nM; in assay [2] (setting [12]) it was 98 nM.
In turn, `CN(C)c1ccc(-c2ccc3[nH]c(CCCCCCC(=O)NO)nc3c2)cc1` [Compound ID 31, 7-(5-(4-(dimethylamino)phenyl)-1H-benzo[d]imidazol-2-yl)-N-hydroxyheptanamide] came in with an IC50 in assay [2] (setting [12]) of 6600 nM.
As for `O=C(CCCCCCc1nc2ccccc2n1C1CCCC1)NO` [Compound ID 25, 7-(1-cyclopentyl-1H-benzo[d]imidazol-2-yl)-N-hydroxyheptanamide], the IC50 in assay [1] (setting [11]) was 2300 nM; in [2] (setting [12]), 4800 nM.
